Data as given in PubChem BioAssay AID328 (DTP/NCI, 2004).
Inconclusive results and toxic doses are left out.

Test system: BDF1 mice, P388 leukemia ip, median survival T/C
Assay: NCI In Vivo Anticancer Drug Screen. Data for tumor model P388 Leukemia (intraperitoneal) in B6D2F1 (BDF1) mice
Settings: endpoint: median survival time, higher = longer survival
Summary of the method: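 In tumour-bearing mice, survival after compound treatment is set against the vehicle group and given as a quotient.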

[1] = dose: 100.0 mg/kg/injection, schedule: Q04DX003 (ip), vehicle: saline with Tween-80
[2] = dose: 200.0 mg/kg/injection, schedule: Q04DX003 (ip), vehicle: saline with Tween-80
[3] = dose: 100.0 mg/kg/injection, schedule: Q04DX003 (ip), vehicle: other
[4] = dose: 200.0 mg/kg/injection, schedule: Q04DX003 (ip), vehicle: other
[5] = dose: 400.0 mg/kg/injection, schedule: Q04DX003 (ip), vehicle: other
[6] = dose: 100.0 mg/kg/injection, schedule: Q04DX003 (ip), vehicle: Klucel (hydroxypropylcellulose) (HPC)
[7] = dose: 200.0 mg/kg/injection, schedule: Q04DX003 (ip), vehicle: Klucel (hydroxypropylcellulose) (HPC)
[8] = dose: 400.0 mg/kg/injection, schedule: Q04DX003 (ip), vehicle: Klucel (hydroxypropylcellulose) (HPC)
[9] = dose: 200.0 mg/kg/injection, schedule: Q01DX009 (ip), vehicle: Klucel (hydroxypropylcellulose) (HPC)
[10] = dose: 50.0 mg/kg/injection, schedule: Q01DX009 (ip), vehicle: saline with Tween-80
[11] = dose: 100.0 mg/kg/injection, schedule: Q01DX009 (ip), vehicle: saline with Tween-80
[12] = dose: 200.0 mg/kg/injection, schedule: Q01DX009 (ip), vehicle: saline with Tween-80
[13] = dose: 50.0 mg/kg/injection, schedule: Q01DX009 (ip), vehicle: saline + alcohol
[14] = dose: 100.0 mg/kg/injection, schedule: Q01DX009 (ip), vehicle: saline + alcohol
[15] = dose: 25.0 mg/kg/injection, schedule: Q01DX009 (ip), vehicle: saline with Tween-80
[16] = dose: 400.0 mg/kg/injection, schedule: Q04DX003 (ip), vehicle: saline with Tween-80

What does the source list for `O=C(O)c1ccc2c3c(cccc13)CC2`?
T/C (dose: 25.0 mg/kg/injection, schedule: Q01DX001 (ip), vehicle: saline sonified): 100 % of control; T/C (dose: 50.0 mg/kg/injection, schedule: Q01DX001 (ip), vehicle: saline sonified): 100 % of control; T/C (dose: 100.0 mg/kg/injection, schedule: Q01DX001 (ip), vehicle: saline sonified): 104 % of control

`CCN(C(C)(C)C(SSSC(c1ccc(Cl)cc1)C(C)(C)N(CC)S(C)(=O)=O)c1ccc(Cl)cc1)S(C)(=O)=O` (stereo unspecified) was tested. Which T/C (dose: 50.0 mg/kg/injection, schedule: Q04DX003 (ip), vehicle: saline with Tween-80) did it give?
Its T/C is 109 % of control.

What about the T/C [1] of the same molecule?
Its T/C is 122 % of control.

What about the T/C [2] of the same molecule?
The T/C was 122 % of control.

`Cc1c2cc3c(c1O)C(=O)CC(O3)c1ccc(O)c(c1)-c1ccc(O)c(c1)C(=O)OCC1OC(O2)C(O)C(O)C1O` (stereo unspecified) was tested. Which T/C (dose: 0.13 mg/kg/injection, schedule: Q01DX009 (ip), vehicle: Klucel (hydroxypropylcellulose) (HPC)) did it give?
The T/C was 109 % of control.

And the T/C (dose: 0.25 mg/kg/injection, schedule: Q01DX009 (ip), vehicle: Klucel (hydroxypropylcellulose) (HPC))?
The T/C was 106 % of control.

And the T/C (dose: 0.5 mg/kg/injection, schedule: Q01DX009 (ip), vehicle: Klucel (hydroxypropylcellulose) (HPC))?
Its T/C is 112 % of control.

And the T/C (dose: 1.0 mg/kg/injection, schedule: Q01DX009 (ip), vehicle: Klucel (hydroxypropylcellulose) (HPC))?
Its T/C is 112 % of control.

`OCCNc1ccc(I)cc1` was tested. Which T/C [3] did it give?
Its T/C is 113 % of control.

And the T/C [4]?
The T/C was 122 % of control.

What about the T/C [5] of the same molecule?
Its T/C is 104 % of control.

What does the source list for `COc1cc(Cc2cc(OC)c(O)c(OC)c2)cc(OC)c1O`?
T/C [6]: 95 % of control; T/C [7]: 100 % of control; T/C [8]: 100 % of control

How did the T/C [6] turn out when `CN(C)c1ccc(C=C(C#N)C#N)cc1` was run?
The T/C was 100 % of control.

What about the T/C [9] of the same molecule?
Its T/C is 90 % of control.

What about the T/C [7] of the same molecule?
Its T/C is 100 % of control.

What about the T/C (dose: 400.0 mg/kg/injection, schedule: Q01DX009 (ip), vehicle: Klucel (hydroxypropylcellulose) (HPC)) of the same molecule?
Its T/C is 113 % of control.

And the T/C [8]?
The T/C was 90 % of control.

What does the source list for `ClC(c1ccccc1)(c1ccccc1)c1ccccc1`?
T/C [3]: 100 % of control; T/C [4]: 108 % of control; T/C [5]: 104 % of control

How did the T/C (dose: 50.0 mg/kg/injection, schedule: Q01DX009 (ip), vehicle: saline) turn out when `Cc1nn(C2CC(O)C(O)C(CO)O2)c(=O)[nH]c1=O` (stereo unspecified) was run?
The T/C was 98 % of control.

And the T/C (dose: 100.0 mg/kg/injection, schedule: Q01DX009 (ip), vehicle: saline)?
Its T/C is 99 % of control.

And the T/C (dose: 200.0 mg/kg/injection, schedule: Q01DX009 (ip), vehicle: saline)?
Its T/C is 97 % of control.

And the T/C (dose: 400.0 mg/kg/injection, schedule: Q01DX009 (ip), vehicle: saline)?
Its T/C is 106 % of control.

What does the source list for `CCCCCCCCCCCCOc1ccccc1C=O`?
T/C (dose: 50.0 mg/kg/injection, schedule: Q04DX003 (ip), vehicle: Klucel (hydroxypropylcellulose) (HPC)): 104 % of control; T/C [6]: 100 % of control; T/C (dose: 100.0 mg/kg/injection, schedule: Q04DX003 (ip), vehicle: saline sonified): 118 % of control; T/C [7]: 118 % of control; T/C (dose: 200.0 mg/kg/injection, schedule: Q04DX003 (ip), vehicle: saline sonified): 122 % of control; T/C [8]: 109 % of control

Which T/C [10] does the source give for `COc1ccc(C2=C/C(=C3\C(=O)Oc4ccccc4C3=O)SS2)cc1` here?
The T/C was 90 % of control.

And the T/C [11]?
Its T/C is 92 % of control.

What about the T/C [12] of the same molecule?
The T/C was 90 % of control.

Which T/C (dose: 100.0 mg/kg/injection, schedule: Q01DX009 (ip), vehicle: Klucel (hydroxypropylcellulose) (HPC)) does the source give for `Cc1cc2nc(C)c(=O)[nH]c2cc1C` here?
The T/C was 100 % of control.

And the T/C [6]?
Its T/C is 95 % of control.

What about the T/C [9] of the same molecule?
The T/C was 95 % of control.

What about the T/C [7] of the same molecule?
The T/C was 95 % of control.

What about the T/C [8] of the same molecule?
The T/C was 95 % of control.

Which T/C (dose: 16.5 mg/kg/injection, schedule: Q04DX003 (ip), vehicle: saline with Tween-80) does the source give for `CS(=O)(=O)OCCN(CCOS(C)(=O)=O)c1ccccc1` here?
Its T/C is 150 % of control.

What about the T/C (dose: 16.5 mg/kg/injection, schedule: Q04DX003 (ip), vehicle: saline) of the same molecule?
Its T/C is 113 % of control.

What about the T/C (dose: 37.5 mg/kg/injection, schedule: Q04DX003 (ip), vehicle: saline with Tween-80) of the same molecule?
The T/C was 222 % of control.

What does the source list for `O=C1/C(=C\c2ccco2)SC(=S)N1c1ccccc1`?
T/C (dose: 10.0 mg/kg/injection, schedule: Q01DX009 (ip), vehicle: saline with Tween-80): 96 % of control; T/C (dose: 20.0 mg/kg/injection, schedule: Q01DX009 (ip), vehicle: saline with Tween-80): 89 % of control; T/C (dose: 40.0 mg/kg/injection, schedule: Q01DX009 (ip), vehicle: saline with Tween-80): 98 % of control

Which T/C [13] does the source give for `CCc1cccc(CC)c1-n1c(C)ccc1-c1ccccc1` here?
The T/C was 106 % of control.

What about the T/C [14] of the same molecule?
Its T/C is 101 % of control.

What about the T/C (dose: 200.0 mg/kg/injection, schedule: Q01DX009 (ip), vehicle: saline + alcohol) of the same molecule?
The T/C was 106 % of control.

What does the source list for `O=C(Nc1ncc([N+](=O)[O-])s1)c1cccc([N+](=O)[O-])c1`?
T/C (dose: 6.25 mg/kg/injection, schedule: Q01DX009 (ip), vehicle: saline with Tween-80): 99 % of control; T/C (dose: 12.5 mg/kg/injection, schedule: Q01DX009 (ip), vehicle: saline with Tween-80): 94 % of control; T/C [15]: 93 % of control

What does the source list for `OC1CCCCCCCCC1Cl` (stereo unspecified)?
T/C [15]: 104 % of control; T/C [10]: 109 % of control; T/C [11]: 100 % of control

`FC(F)(F)c1cc(-c2ccc(C3Nc4ccccc4-n4cccc43)o2)cc(C(F)(F)F)c1` (stereo unspecified) was tested. Which T/C [10] did it give?
Its T/C is 92 % of control.

And the T/C [11]?
The T/C was 90 % of control.

What about the T/C [12] of the same molecule?
The T/C was 92 % of control.

How did the T/C (dose: 12.5 mg/kg/injection, schedule: Q01DX001 (ip), vehicle: saline with Tween-80) turn out when `Cc1cc(N(CCC(=O)O)CCC(=O)O)ccc1/C=C/c1ccc2cc(Cl)ccc2[n+]1C` was run?
The T/C was 96 % of control.

And the T/C (dose: 25.0 mg/kg/injection, schedule: Q01DX001 (ip), vehicle: saline with Tween-80)?
Its T/C is 96 % of control.

What about the T/C (dose: 50.0 mg/kg/injection, schedule: Q01DX001 (ip), vehicle: saline with Tween-80) of the same molecule?
Its T/C is 94 % of control.

For `CC1OC(O[C@H]2/C=C/C=C/C=C/C=C/C=C/C=C/C=C/[C@H](C)[C@@H](O)[C@@H](C)[C@H](C)OC(=O)C[C@H](O)C[C@H](O)CC[C@@H](O)[C@H](O)C[C@H](O)C[C@]3(O)C[C@H](O)[C@@H](C(=O)O)[C@H](C2)O3)C(O)C(N)C1O` (stereo partly specified), which T/C (dose: 20.0 mg/kg/injection, schedule: Q04DX003 (ip), vehicle: clinical formulation) is on record?
Its T/C is 109 % of control.

And the T/C (dose: 40.0 mg/kg/injection, schedule: Q04DX003 (ip), vehicle: clinical formulation)?
The T/C was 97 % of control.

`CS(=O)(=O)OCC(O)C(O)C(O)C(O)COS(C)(=O)=O` (stereo unspecified) was tested. Which T/C (dose: 25.0 mg/kg/injection, schedule: Q01DX010 (ip), vehicle: saline) did it give?
Its T/C is 108 % of control.

And the T/C (dose: 50.0 mg/kg/injection, schedule: Q01DX010 (ip), vehicle: saline)?
Its T/C is 116 % of control.

`CCCCCCCCCCN(CCCCCCCCCC)C1CC(OC2CC(O)(C(C)=O)Cc3c(O)c4c(c(O)c32)C(=O)c2c(OC)cccc2C4=O)OC(C)C1O` (stereo unspecified) was tested. Which T/C (dose: 37.5 mg/kg/injection, schedule: Q04DX003 (ip), vehicle: other) did it give?
The T/C was 99 % of control.

And the T/C (dose: 75.0 mg/kg/injection, schedule: Q04DX003 (ip), vehicle: other)?
Its T/C is 103 % of control.

What about the T/C (dose: 150.0 mg/kg/injection, schedule: Q04DX003 (ip), vehicle: other) of the same molecule?
Its T/C is 94 % of control.

What about the T/C (dose: 300.0 mg/kg/injection, schedule: Q04DX003 (ip), vehicle: other) of the same molecule?
The T/C was 99 % of control.

What about the T/C [5] of the same molecule?
The T/C was 90 % of control.

How did the T/C [10] turn out when `O=C(O)c1ccc(-c2ccc(C(=O)O)cc2I)c(I)c1` was run?
Its T/C is 100 % of control.

What about the T/C [11] of the same molecule?
The T/C was 96 % of control.

What about the T/C [1] of the same molecule?
Its T/C is 100 % of control.

And the T/C [12]?
Its T/C is 96 % of control.

What about the T/C [2] of the same molecule?
Its T/C is 100 % of control.

What about the T/C [16] of the same molecule?
The T/C was 95 % of control.

Which T/C [13] does the source give for `Fc1ccc(NC(=S)SCc2ccc3c(c2)OCO3)cc1F` here?
The T/C was 116 % of control.

And the T/C [10]?
The T/C was 109 % of control.

What about the T/C [14] of the same molecule?
Its T/C is 116 % of control.

What about the T/C [11] of the same molecule?
Its T/C is 116 % of control.

What about the T/C [12] of the same molecule?
The T/C was 155 % of control.

For `COC(=O)CCCCCC(O)C1CCC2OC(=O)CC21C` (stereo unspecified), which T/C [1] is on record?
Its T/C is 100 % of control.

What about the T/C [2] of the same molecule?
Its T/C is 100 % of control.

What about the T/C [16] of the same molecule?
The T/C was 100 % of control.
